Assay [1] addresses Serine/threonine-protein kinase TAO3 (Homo sapiens) (UniProt Q9H2K8). Briefly: Inhibition of T7 bacteriophage fused human TAOK3 at 10 uM by KINOMEscan analysis relative to control.
For assay [2], the target named is Non-receptor tyrosine-protein kinase TYK2 (Homo sapiens) (UniProt P29597). Kind of assay: Inhibition of T7 bacteriophage fused human TYK2 JH1 catalytic domain at 10 uM by KINOMEscan analysis relative to control.
The target of assay [3] is Transient receptor potential cation channel subfamily M member 6 (Homo sapiens) (UniProt Q9BX84). Briefly: Inhibition of T7 bacteriophage fused human TRPM6 at 10 uM by KINOMEscan analysis relative to control.
Chain of Transient receptor potential cation channel subfamily M member 6 (Homo sapiens) (Q9BX84 whole entry, the tested form may be a part): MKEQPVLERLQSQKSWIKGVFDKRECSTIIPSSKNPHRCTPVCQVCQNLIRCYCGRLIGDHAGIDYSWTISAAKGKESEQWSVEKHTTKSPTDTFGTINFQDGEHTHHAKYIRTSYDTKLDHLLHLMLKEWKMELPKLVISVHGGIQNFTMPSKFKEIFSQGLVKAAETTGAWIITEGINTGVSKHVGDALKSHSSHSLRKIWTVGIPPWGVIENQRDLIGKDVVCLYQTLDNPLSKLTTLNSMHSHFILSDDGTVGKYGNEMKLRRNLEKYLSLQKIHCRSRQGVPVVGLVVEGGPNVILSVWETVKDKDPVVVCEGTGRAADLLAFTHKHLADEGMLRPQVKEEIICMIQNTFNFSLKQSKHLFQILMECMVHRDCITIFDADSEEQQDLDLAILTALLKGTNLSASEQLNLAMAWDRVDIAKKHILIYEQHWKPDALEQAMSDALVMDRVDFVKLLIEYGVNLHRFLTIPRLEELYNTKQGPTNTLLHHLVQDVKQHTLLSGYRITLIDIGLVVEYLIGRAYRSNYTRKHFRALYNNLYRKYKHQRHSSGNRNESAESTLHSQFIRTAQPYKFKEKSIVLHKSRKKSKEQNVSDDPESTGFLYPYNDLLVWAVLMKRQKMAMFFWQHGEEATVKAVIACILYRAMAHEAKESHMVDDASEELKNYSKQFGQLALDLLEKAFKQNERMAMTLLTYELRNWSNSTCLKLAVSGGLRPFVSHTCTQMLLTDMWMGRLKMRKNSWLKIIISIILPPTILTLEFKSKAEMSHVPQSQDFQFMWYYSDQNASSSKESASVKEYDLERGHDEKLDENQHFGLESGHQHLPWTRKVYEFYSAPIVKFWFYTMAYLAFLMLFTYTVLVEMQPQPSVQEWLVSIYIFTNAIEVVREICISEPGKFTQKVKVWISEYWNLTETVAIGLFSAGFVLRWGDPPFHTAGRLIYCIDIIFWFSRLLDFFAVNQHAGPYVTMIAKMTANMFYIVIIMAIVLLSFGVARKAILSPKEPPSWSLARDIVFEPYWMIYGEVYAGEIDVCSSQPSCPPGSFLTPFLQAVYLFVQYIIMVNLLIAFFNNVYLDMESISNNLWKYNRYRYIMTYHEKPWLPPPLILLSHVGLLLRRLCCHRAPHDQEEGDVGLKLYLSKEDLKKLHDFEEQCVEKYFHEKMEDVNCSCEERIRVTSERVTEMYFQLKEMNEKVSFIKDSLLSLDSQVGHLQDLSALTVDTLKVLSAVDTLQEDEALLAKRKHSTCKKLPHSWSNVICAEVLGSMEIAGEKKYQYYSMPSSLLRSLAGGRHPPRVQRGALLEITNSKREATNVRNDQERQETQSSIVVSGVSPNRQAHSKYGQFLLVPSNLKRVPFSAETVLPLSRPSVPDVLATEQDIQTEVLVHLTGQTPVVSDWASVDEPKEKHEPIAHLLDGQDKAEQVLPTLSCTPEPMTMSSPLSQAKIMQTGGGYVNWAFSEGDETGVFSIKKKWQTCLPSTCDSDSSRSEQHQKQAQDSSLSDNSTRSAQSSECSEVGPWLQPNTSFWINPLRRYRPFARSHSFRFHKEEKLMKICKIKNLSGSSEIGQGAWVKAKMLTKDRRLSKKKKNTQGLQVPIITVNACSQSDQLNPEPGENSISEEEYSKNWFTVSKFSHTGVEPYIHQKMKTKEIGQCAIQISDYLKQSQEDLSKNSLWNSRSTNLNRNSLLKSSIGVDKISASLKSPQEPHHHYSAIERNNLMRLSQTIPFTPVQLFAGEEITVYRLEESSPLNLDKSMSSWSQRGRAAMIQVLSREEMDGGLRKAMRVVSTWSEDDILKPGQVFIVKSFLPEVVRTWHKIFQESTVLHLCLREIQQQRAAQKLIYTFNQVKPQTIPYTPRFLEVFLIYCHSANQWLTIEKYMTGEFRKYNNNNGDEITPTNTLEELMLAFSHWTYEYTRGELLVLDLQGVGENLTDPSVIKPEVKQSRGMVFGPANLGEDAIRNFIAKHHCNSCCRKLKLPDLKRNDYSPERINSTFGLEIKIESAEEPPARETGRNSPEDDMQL
For assay [4], the target named is TRAF2 and NCK-interacting protein kinase (Homo sapiens) (UniProt Q9UKE5). Briefly: Inhibition of T7 bacteriophage fused human TNIK at 10 uM by KINOMEscan analysis relative to control.
Assay [5] addresses NUAK family SNF1-like kinase 2 (Homo sapiens) (UniProt Q9H093). Kind of assay: Inhibition of T7 bacteriophage fused human SNARK at 10 uM by KINOMEscan analysis relative to control.
The target of assay [6] is Serine/threonine-protein kinase Sgk3 (Homo sapiens) (UniProt Q96BR1). Kind of assay: Inhibition of T7 bacteriophage fused human SGK3 at 10 uM by KINOMEscan analysis relative to control.
Assay [7] has as its target NT-3 growth factor receptor (Homo sapiens) (UniProt Q16288). Kind of assay: Inhibition of T7 bacteriophage fused human TRKC at 10 uM by KINOMEscan analysis relative to control.
Assay [8] addresses Serine/threonine-protein kinase SIK1 (Homo sapiens) (UniProt P57059). Kind of assay: Inhibition of T7 bacteriophage fused human SIK at 10 uM by KINOMEscan analysis relative to control.
Assay [9] concerns the target Proto-oncogene tyrosine-protein kinase Src (Homo sapiens) (UniProt P12931). Kind of assay: Inhibition of T7 bacteriophage fused human SRC at 10 uM by KINOMEscan analysis relative to control.
Assay [10] addresses Serine/threonine-protein kinase 33 (Homo sapiens) (UniProt Q9BYT3). Kind of assay: Inhibition of T7 bacteriophage fused human STK33 at 10 uM by KINOMEscan analysis relative to control.
Assay [11] has as its target TGF-beta receptor type-1 (Homo sapiens) (UniProt P36897). Briefly: Inhibition of T7 bacteriophage fused human TGFBR1 at 10 uM by KINOMEscan analysis relative to control.
Assay [12] concerns the target High affinity nerve growth factor receptor (Homo sapiens) (UniProt P04629). Briefly: Inhibition of T7 bacteriophage fused human TRKA at 10 uM by KINOMEscan analysis relative to control.
In assay [13] the target is Tyrosine-protein kinase Yes (Homo sapiens) (UniProt P07947). Briefly: Inhibition of T7 bacteriophage fused human YES at 10 uM by KINOMEscan analysis relative to control.
Assay [14] can be described thus: Inhibition of T7 bacteriophage fused Plasmodium falciparum CDPK1 at 10 uM by KINOMEscan analysis relative to control. The settings on record: condition cancer.
The target of assay [15] is Wee1-like protein kinase (Homo sapiens) (UniProt P30291). Briefly: Inhibition of T7 bacteriophage fused human WEE1 at 10 uM by KINOMEscan analysis relative to control.
Chain of Wee1-like protein kinase (Homo sapiens) (P30291 whole entry, looked up, the tested form may be a part): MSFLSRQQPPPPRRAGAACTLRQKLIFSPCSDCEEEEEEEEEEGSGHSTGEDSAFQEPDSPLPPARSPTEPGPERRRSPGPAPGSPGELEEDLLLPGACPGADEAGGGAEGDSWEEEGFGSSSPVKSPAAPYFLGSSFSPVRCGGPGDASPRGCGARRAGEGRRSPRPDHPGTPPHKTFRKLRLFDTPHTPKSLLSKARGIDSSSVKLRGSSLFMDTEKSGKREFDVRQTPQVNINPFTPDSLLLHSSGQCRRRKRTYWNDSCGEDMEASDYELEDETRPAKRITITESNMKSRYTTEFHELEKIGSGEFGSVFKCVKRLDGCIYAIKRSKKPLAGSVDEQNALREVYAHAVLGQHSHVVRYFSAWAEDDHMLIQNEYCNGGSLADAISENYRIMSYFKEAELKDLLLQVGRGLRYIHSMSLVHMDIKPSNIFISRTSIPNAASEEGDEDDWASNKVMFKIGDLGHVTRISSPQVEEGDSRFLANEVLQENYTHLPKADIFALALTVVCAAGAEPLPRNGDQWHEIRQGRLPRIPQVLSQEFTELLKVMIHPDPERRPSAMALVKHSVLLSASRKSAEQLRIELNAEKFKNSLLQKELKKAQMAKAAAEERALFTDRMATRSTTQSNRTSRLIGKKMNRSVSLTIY
Assay [16] addresses BDNF/NT-3 growth factors receptor (Homo sapiens) (UniProt Q16620). Kind of assay: Inhibition of T7 bacteriophage fused human TRKB at 10 uM by KINOMEscan analysis relative to control.
The target of assay [17] is T1, Dual specificity protein kinase TTK (Homo sapiens) (UniProt P33981).
T1 sequence (whole entry): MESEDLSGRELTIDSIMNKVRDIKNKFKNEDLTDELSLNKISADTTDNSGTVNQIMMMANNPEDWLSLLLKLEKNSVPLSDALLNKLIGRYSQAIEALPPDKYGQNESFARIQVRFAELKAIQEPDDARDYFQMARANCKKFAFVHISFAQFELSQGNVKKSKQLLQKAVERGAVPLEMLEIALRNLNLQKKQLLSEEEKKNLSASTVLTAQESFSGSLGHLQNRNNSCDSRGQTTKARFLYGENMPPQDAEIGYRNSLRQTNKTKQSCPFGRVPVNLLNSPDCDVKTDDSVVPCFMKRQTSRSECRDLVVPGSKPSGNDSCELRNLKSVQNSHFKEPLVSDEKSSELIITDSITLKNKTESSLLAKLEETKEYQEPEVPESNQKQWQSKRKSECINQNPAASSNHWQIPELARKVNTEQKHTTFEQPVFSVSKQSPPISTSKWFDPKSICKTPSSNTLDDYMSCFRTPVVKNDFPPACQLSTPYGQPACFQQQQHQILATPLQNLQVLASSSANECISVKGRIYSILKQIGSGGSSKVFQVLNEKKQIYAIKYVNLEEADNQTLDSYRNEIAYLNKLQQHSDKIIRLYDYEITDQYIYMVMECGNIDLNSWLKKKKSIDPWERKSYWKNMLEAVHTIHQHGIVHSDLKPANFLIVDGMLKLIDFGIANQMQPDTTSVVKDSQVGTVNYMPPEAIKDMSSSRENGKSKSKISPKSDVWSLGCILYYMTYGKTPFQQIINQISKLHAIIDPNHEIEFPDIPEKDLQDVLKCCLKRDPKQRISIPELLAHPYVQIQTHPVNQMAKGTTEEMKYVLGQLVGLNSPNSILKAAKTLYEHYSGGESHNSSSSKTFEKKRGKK
Kind of assay: Inhibition of T7 bacteriophage fused human TTK at 10 uM by KINOMEscan analysis relative to control.

The target in assay [18] is SNF-related serine/threonine-protein kinase (Homo sapiens) (UniProt Q9NRH2). Briefly: Inhibition of T7 bacteriophage fused human SNRK at 10 uM by KINOMEscan analysis relative to control.
The target in assay [19] is Tyrosine-protein kinase Tec (Homo sapiens) (UniProt P42680). Briefly: Inhibition of T7 bacteriophage fused human TEC at 10 uM by KINOMEscan analysis relative to control.
Chain of Tyrosine-protein kinase Tec (Homo sapiens) (P42680 whole entry, looked up, the tested form may be a part): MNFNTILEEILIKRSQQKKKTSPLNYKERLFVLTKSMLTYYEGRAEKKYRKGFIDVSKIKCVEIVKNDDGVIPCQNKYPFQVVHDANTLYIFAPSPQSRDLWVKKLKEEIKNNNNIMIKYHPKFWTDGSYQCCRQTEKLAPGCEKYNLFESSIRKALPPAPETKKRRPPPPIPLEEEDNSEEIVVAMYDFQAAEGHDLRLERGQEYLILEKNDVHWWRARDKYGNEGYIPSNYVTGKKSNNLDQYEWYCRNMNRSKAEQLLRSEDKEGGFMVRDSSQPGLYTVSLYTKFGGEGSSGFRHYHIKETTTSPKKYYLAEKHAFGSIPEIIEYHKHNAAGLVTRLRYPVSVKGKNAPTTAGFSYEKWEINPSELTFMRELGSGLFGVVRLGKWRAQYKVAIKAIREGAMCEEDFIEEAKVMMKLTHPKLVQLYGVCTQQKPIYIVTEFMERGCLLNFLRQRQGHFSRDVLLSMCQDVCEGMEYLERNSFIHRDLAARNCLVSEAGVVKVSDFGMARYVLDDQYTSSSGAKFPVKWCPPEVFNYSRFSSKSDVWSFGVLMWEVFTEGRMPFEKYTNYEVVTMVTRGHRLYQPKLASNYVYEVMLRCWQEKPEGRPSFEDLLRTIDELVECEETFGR
Assay [20] addresses Tyrosine-protein kinase TXK (Homo sapiens) (UniProt P42681). Kind of assay: Inhibition of T7 bacteriophage fused human TXK at 10 uM by KINOMEscan analysis relative to control.
Assay [21] concerns the target Testis-specific serine/threonine-protein kinase 1 (Homo sapiens) (UniProt Q9BXA7). Kind of assay: Inhibition of T7 bacteriophage fused human TSSK1B at 10 uM by KINOMEscan analysis relative to control.
The target in assay [22] is Microtubule-associated serine/threonine-protein kinase 1 (Homo sapiens) (UniProt Q9Y2H9). Briefly: Inhibition of T7 bacteriophage fused human MAST1 at 10 uM by KINOMEscan analysis relative to control; values are per cent of control.
The target in assay [23] is SRSF protein kinase 1 (Homo sapiens) (UniProt Q96SB4). Kind of assay: Inhibition of T7 bacteriophage fused human SRPK1 at 10 uM by KINOMEscan analysis relative to control.
Chain of SRSF protein kinase 1 (Homo sapiens) (Q96SB4 whole entry, the tested form may be a part): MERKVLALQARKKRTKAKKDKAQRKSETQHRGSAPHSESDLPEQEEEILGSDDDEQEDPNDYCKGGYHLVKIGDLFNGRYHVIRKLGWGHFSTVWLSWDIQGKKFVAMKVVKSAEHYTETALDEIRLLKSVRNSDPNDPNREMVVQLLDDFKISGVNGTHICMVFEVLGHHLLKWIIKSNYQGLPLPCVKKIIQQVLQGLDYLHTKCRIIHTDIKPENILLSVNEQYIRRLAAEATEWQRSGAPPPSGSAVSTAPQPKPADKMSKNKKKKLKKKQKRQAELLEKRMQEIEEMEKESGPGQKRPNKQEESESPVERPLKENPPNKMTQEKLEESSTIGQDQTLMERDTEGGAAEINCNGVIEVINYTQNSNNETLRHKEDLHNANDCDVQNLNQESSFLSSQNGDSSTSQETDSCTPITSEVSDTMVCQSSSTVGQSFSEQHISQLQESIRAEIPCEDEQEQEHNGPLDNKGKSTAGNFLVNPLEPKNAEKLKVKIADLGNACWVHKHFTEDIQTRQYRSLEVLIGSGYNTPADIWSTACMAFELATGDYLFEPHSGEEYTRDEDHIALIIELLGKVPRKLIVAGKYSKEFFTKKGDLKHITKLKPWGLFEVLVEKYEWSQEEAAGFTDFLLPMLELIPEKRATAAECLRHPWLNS
For assay [24], the target named is Mitogen-activated protein kinase kinase kinase 12 (Homo sapiens) (UniProt Q12852). Briefly: Inhibition of T7 bacteriophage fused human DLK at 10 uM by KINOMEscan analysis relative to control; values are per cent of control.

The record followed here is ChEMBL document CHEMBL5678810.

The structures appear in SMILES notation.

Chain of TGF-beta receptor type-1 (Homo sapiens) (P36897 whole entry, the tested form may be a part): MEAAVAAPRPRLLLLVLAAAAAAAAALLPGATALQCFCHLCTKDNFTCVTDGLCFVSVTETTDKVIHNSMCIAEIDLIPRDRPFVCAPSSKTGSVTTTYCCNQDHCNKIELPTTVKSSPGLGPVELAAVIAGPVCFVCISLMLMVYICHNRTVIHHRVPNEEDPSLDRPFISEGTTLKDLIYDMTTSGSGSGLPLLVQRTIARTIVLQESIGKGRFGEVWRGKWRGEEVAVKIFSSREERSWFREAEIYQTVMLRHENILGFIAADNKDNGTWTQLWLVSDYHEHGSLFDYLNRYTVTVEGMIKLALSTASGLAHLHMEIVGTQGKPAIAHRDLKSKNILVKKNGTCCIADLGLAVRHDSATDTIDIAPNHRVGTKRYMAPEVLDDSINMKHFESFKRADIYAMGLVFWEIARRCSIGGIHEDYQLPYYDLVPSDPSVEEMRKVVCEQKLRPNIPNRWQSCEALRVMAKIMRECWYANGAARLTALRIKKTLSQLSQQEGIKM
Chain of Testis-specific serine/threonine-protein kinase 1 (Homo sapiens) (Q9BXA7 whole entry, the tested form may be a part): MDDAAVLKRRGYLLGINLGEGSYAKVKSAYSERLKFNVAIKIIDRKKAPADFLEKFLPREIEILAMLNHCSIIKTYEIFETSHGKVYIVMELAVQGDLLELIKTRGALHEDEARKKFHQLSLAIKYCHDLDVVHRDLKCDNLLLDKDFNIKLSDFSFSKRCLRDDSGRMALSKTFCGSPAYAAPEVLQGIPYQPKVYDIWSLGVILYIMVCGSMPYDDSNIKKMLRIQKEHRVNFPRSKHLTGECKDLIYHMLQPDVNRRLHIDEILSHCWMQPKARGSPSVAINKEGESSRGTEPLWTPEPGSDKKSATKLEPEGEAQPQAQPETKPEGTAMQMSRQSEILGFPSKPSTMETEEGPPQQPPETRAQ

On to `COc1cc(C(=O)N2CCC(N3CCN(C)CC3)CC2)ccc1Nc1ncc2c(n1)N(C1CCCC1)c1ccccc1C(=O)N2C`, for which the inhibition in assay [1], in assay [2], in [3], in assay [4], in [5] and in assay [6] was 100% in each case. Also, the inhibition (as a rule, how much of the control response was suppressed) in assay [7] was determined as 100%.

Take `COc1cc(N2CCC(N3CCN(C)CC3)CC2)ccc1Nc1ncc2c(n1)N(C)c1ccccc1C(=O)N2C`: the inhibition turned out to be 24% in assay [1]; 77% in assay [8]; 100% in assay [9]; 52% in assay [2]; 10% in assay [10]; 100% in assay [11]. The inhibition in assay [12] worked out at 69%; in [13], 100%; in [15] it was 100%; in assay [16] it was 100%; in assay [17], 28%; in assay [3], 100%. For the same compound, the inhibition was found to be 94% in assay [18]; 100% in assay [19]; 100% in assay [4]; 91% in [20]; 47% in assay [5]; 60% in [21]. Also, the inhibition in assay [6] is 95%; in assay [23], 94%; in assay [7] it was 100%. Testing at 10 µM in [14] gave an inhibition of 100%. Moreover, the residual activity in assay [22] is 100%; in assay [24], 81%.

`CCOc1cc(C(=O)N2CCC(N3CCN(C)CC3)CC2)ccc1Nc1ncc2c(n1)N(C1CCCC1)c1ccccc1C(=O)N2C`: the inhibition in [8], in [9], in [10], in [11], in [12] and in assay [13] was 100% throughout. Moreover, the inhibition was determined as 100% in assay [15]; 100% in assay [16]; 49% in assay [17]; 52% in assay [18]; 100% in assay [19]; 100% in [20]. In addition, the inhibition in assay [21] and in assay [23] was 100% in each case. Testing at 10 µM in assay [14] gave an inhibition of 100%. The residual activity in [22] and in assay [24] was 100% each time.
